Measurements reported in ChEMBL document CHEMBL1123520, “Digitoxigenin 3-O-beta-D-furanosides” (1986).

Experiments:
Format in all cases: functional
[1] = species: Cavia porcellus; assay: Dose required to produce negative inotropic (NI) effect in Guinea pig atria; MI is Minimal Activity
[2] = species: Cavia porcellus; assay: Dose required to produce 75% increase in developed tension of inotropic effect in guinea pig atria.
[3] = species: Cavia porcellus; assay: Dose required to produce 50% increase in developed tension of inotropic effect in guinea pig atria.
[4] = species: Cavia porcellus; assay: Dose required to produce negative inotropic (NI) or arrhythmia (A) effect in Guinea pig atria.
[5] = species: Cavia porcellus; assay: Dose required to produce negative inotropic (NI) effect in Guinea pig atria.
[6] = species: Cavia porcellus; assay: Dose required to produce arrhythmia (A) on Guinea pig atria.
[7] = species: Cavia porcellus; assay: Dose required to produce 75% increase in developed tension of inotropic effect in guinea pig atria; MI is Minimal Activity

Row | Structure (SMILES) | Dose [1] | Dose [2] [µM] | Dose [3] [µM] | Dose [4] [µM] | Dose [5] [µM] | Dose [6] [µM] | Dose [7]
1 | CC(=O)OC[C@H]1O[C@@H](OC2CC[C@@]3(C)C(CC[C@@H]4[C@@H]3CC[C@]3(C)[C@@H](C5=CC(=O)OC5)CC[C@@]43O)C2)[C@H](OC(C)=O)[C@@H]1OC(C)=O (stereo not given in full) | Minimal activity | 3 | 1.9 |  |  |  | 
2 | C[C@]12CC[C@H](O[C@@H]3O[C@H](CN)[C@@H](O)[C@H]3O)C[C@@H]1CC[C@@H]1[C@@H]2CC[C@]2(C)[C@@H](C3=CC(=O)OC3)CC[C@@]12O |  | 0.35 | 0.26 | 5 |  |  | 
3 | C[C@H]1O[C@@H](O[C@H]2[C@@H](O)C[C@H](O[C@H]3[C@@H](O)C[C@H](O[C@H]4CC[C@@]5(C)[C@H](CC[C@@H]6[C@@H]5C[C@@H](O)[C@]5(C)[C@@H](C7=CC(=O)OC7)CC[C@]65O)C4)O[C@@H]3C)O[C@@H]2C)C[C@H](O)[C@@H]1O [DIGOXIN] |  | 0.82 | 0.42 |  | 2.5 |  | 
4 | C[C@]12CC[C@H](O)C[C@H]1CC[C@@H]1[C@@H]2CC[C@]2(C)[C@@H](C3=CC(=O)OC3)CC[C@]12O [DIGITOXIGENIN] |  | 0.64 | 0.38 |  | 2.5 |  | 
5 | C[C@]12CC[C@H](O[C@@H]3O[C@H](CN=[N+]=[N-])[C@@H](O)[C@H]3O)C[C@@H]1CC[C@@H]1[C@@H]2CC[C@]2(C)[C@@H](C3=CC(=O)OC3)CC[C@@]12O |  | 0.43 | 0.25 | 1 |  |  | 
6 | C[C@]12CCC(O[C@@H]3O[C@H]4[C@H](NC[C@H]4O)[C@H]3O)CC1CC[C@@H]1[C@@H]2CC[C@]2(C)[C@@H](C3=CC(=O)OC3)CC[C@@]12O (stereo not given in full) |  | 0.86 | 0.5 |  | 2 | 1.5 | 
7 | CC(=O)O[C@H]1[C@H](OC2CC[C@@]3(C)C(CC[C@@H]4[C@@H]3CC[C@]3(C)[C@@H](C5=CC(=O)OC5)CC[C@@]43O)C2)O[C@H]2[C@@H]1N(C(=O)C(F)(F)F)C[C@H]2OC(C)=O (stereo not given in full) |  | 0.65 | 0.54 |  | 1 | 0.75 | 
8 | CC(=O)O[C@H]1[C@H](OC2CC[C@@]3(C)C(CCC4[C@@H]3CC[C@]3(C)[C@@H](C5=CC(=O)OC5)CC[C@@]43O)C2)O[C@H](CN=[N+]=[N-])[C@H]1OC(C)=O (stereo not given in full) |  | 0.44 | 0.3 |  | 2.5 |  | 
9 | CC(=O)O[C@H]1[C@H](OC2CC[C@@]3(C)C(CC[C@@H]4[C@@H]3CC[C@]3(C)[C@@H](C5=CC(=O)OC5)CC[C@@]43O)C2)O[C@H]2[C@@H]1OC[C@H]2OC(C)=O (stereo not given in full) |  | 0.53 | 0.39 | 1 |  |  | 
10 | C[C@]12CCC(O[C@@H]3O[C@H]4[C@H](OC[C@H]4O)[C@H]3O)CC1CC[C@@H]1[C@@H]2CC[C@]2(C)[C@@H](C3=CC(=O)OC3)CC[C@@]12O (stereo not given in full) | Minimal activity |  | 10 |  |  |  | Minimal activity
11 | C[C@]12CC[C@H](O[C@@H]3O[C@H](CO)[C@@H](O)[C@H]3O)C[C@@H]1CC[C@@H]1[C@@H]2CC[C@]2(C)[C@@H](C3=CC(=O)OC3)CC[C@@]12O |  | 0.64 | 0.36 |  | 2.5 |  | 
